# Where no end group is shown, it is not given here. [ ]: non-standard residue; d: D form. NMeR = CN[C@@H](CCCNC(=N)N)C(=O)O; αMeR = C[C@](N)(CCCNC(=N)N)C(=O)O; NMeE = CN[C@@H](CCC(=O)O)C(=O)O; αMeE = C[C@](N)(CCC(=O)O)C(=O)O
# Legend:
# [1] = system: orthotopic 22Rv1 xenograft tumors; test: In vivo homing of FAM-labeled CREKA and methylated CREKA peptides; set-up: species or system mouse; details: for tumor fluorescence compared to unmodified CREKA: 200 μg FAM-conjugated peptide, 3 hrs, Image J
# Method: Tumor accumulation of CREKA peptide and its N-methylated and C-methylated variants. The accumulation of N-methylated and C-methylated derivatives of CREKA was measured in mice bearing orthotropic 22Rv-1 xenograft tumors. The mice were intravenously injected with 200 μg of FAM-conjugated CREKA or methylated CREKA peptides derivatives. The peptides were allowed to circulate for 3 hrs. The mice were then perfused through the heart with PBS, and organs were collected and the fluorescence was measured under UV light. The fluorescence was analyzed with Image J software. Most N/C-methylated CREKA analogs produced stronger fluorescence compared to the unmodified CREKA. […] In FIG. 10B the enhanced fluorescence of CR(NMe)EKA is shown in the tumor compared to both CREKA and C(NMe)REKA peptide. It is shown that FAM-labeled CREKA peptide in which the glutamic acid is N-methylated accumulates in tumor tissue more strongly than unmodified CREKA.
# Orthotopic prostate cancers were used when they reached 0.5-1 cm in size. Synthetic peptides labeled with fluorescein (approximately 200 μg) were intravenously injected into tumor-bearing mice and allowed to circulate for 15 minutes to 3 hours. The mice were perfused with PBS through the heart under anesthesia, and tissues were collected and observed under UV light (Illumatool Bright Light System LT-9900, Lightools Research, Encinitas, Calif.), and then processed for immunofluorescence or immunohistochemistry.
# [2] = system: 22Rv1 orthotopic human prostate cancer tumors; test: Homing and clotting of peptide-coated iron oxide nanoworms/SPIO; format: in vivo, mouse; details: intravenous, Example 2
# Method: To analyze NW biodistribution, mice bearing orthotopic 22Rv1 tumors were injected into the tail vein (5 mg of iron per kg body weight). In homing experiments, the mice were euthanized 5-6 hours after the injection by cardiac perfusion with PBS under anesthesia, and organs were dissected and analyzed for particle homing. In tumor treatment experiments, nude mice bearing 2 week-old 22Rv-1 or LAPC9 orthotopic xenografts (typically about 200-250 mm^3 in tumor volume) were intravenously injected with NW in 150 μl PBS or PBS as a control. The NW were injected every other day for 14 days. The total cumulative dose was 35 mg iron/kg. At the end of the treatment, the mice were perfused with PBS under anesthesia, and the tumors were harvested. Tumor volume was calculated using the following formula: volume (mm3)=(d2×D)/2, where d and D are the smallest and largest tumor diameters, respectively. […] The primary antibodies were detected with Alexa 647 goat anti-rat, and 647 donkey anti-goat secondary antibodies (1:1000; Molecular Probes, Eugene, Oreg.). […] The primary antibody was detected with biotinylated anti-mouse IgG and Vectastain ABC kit (Vector Laboratories, Burlingame, Calif.). […] To quantify the homing area of fibrin(ogen) within tumors the stained section were scanned with the Scanscope CM-1 scanner and analyzed with the ImageScope software41 (Aperio Technologies, Vista, Calif.).
# [3] = Nanoparticle clearance (blood half-life); format: in vivo, mouse
# Method: Nanoparticle injections. For intravenous injections, the animals were anesthetized with intraperitoneal Avertin, and liposomes (2 μmol DSPC) and/or nanoparticles (1-4 mg Fe/kg body weight) were injected into the tail vein. The animals were sacrificed 5-24 h post-injection by cardiac perfusion with PBS under anesthesia, and organs were dissected and analyzed for particle homing. To suppress liver macrophages, mice were intravenously injected with liposomal clodronate suspension (100 μl per mouse), and the mice were used for experiments 24 hours later. Nanoparticle clearance. Heparinized capillaries were used to draw 50 μA of blood from the periorbital plexus at different times after nanoparticle injection, the blood was centrifuged at 300 g for 2 min, and a 10 μA aliquot of platelet-rich plasma was diluted into 600 μl 1M Tris solution, pH 8.4. Fluorescence was determined on a PerkinElmer (Norwalk, Conn.) LS50B spectrofluorometer, and plotted as a function of the time the particles had circulated.
# [4] = system: MDA-MB-435 human breast cancer xenograft tumors; test: Nanoparticle/liposome tumor homing and clotting in tumor vessels; format: in vivo, mouse
# Method: Nanoparticle injections. For intravenous injections, the animals were anesthetized with intraperitoneal Avertin, and liposomes (2 μmol DSPC) and/or nanoparticles (1-4 mg Fe/kg body weight) were injected into the tail vein. The animals were sacrificed 5-24 h post-injection by cardiac perfusion with PBS under anesthesia, and organs were dissected and analyzed for particle homing. To suppress liver macrophages, mice were intravenously injected with liposomal clodronate suspension (100 μl per mouse), and the mice were used for experiments 24 hours later.
# Intravital microscopy. Tumor blood flow in MDA-MB 435 xenograft-bearing mice was observed by intravital microscopy. Mice were pre-injected with Ni-liposomes and 5×10^8 of DiI-labeled erythrocytes. A skin flap was moved aside to expose the tumors, and the mice were intravenously injected with 4 mg/kg of fluorescein-CREKA-SPIO (time “0”). The tumors were scanned with IV-100 intravital laser scanning microscope (Olympus Corp., Tokyo, Japan) using an IV-OB35F22W29 MicroProbe objective (Olympus Corp., Tokyo, Japan). Movies were recorded at 10 min intervals up to 120 min post-injection.
# Magnetic measurements of the tissue samples using Superconducting Quantum Interference Device (SQUID) magnetometer. Tissue samples were frozen immediately upon collection, lyophilized, weighed, and placed in gelatin capsules. The capsules were inserted into the middle of transparent plastic straws for magnetic measurements made using a Quantum Design MPMS2 SQUID magnetometer (San Diego, Calif.) operated at 150 K. The samples were exposed to direct current magnetic fields in stepwise increments up to one Tesla. Corrections were made for the diamagnetic contribution of tissue, capsule and straw.
# [5] = system: mouse plasma clots; test: Nanoparticle binding to plasma clots in vitro
# Method: (§1) Phage and nanoparticle binding to clots. Phage binding to clotted plasma proteins was determined as described (Pilch 2006). CREKA-SPIO and control SPIO were added to freshly formed plasma clots in the presence or absence of free CREKA peptide. After 10 min incubation, the clots were washed 4 times in PBS, transferred to a new tube and digested in 100 μl concentrated nitric acid. The digested material was diluted in 2 ml distilled water and the iron concentration was determined using inductively coupled plasma-optical emission spectroscopy (ICP-OES, PerkinElmer, Norwalk, Conn.).
# [6] = system: human plasma clots; test: Nanoparticle binding to plasma clots in vitro
# Method: as §1
# [7] = intravenous, no decoy pretreatment
substance,measurement,setting,value
C(NMe)REKA: CREKA analog in which the arginine residue is N-methylated (C[NMeR]EKA),tumor fluorescence compared to unmodified CREKA,[1],did not show an enhanced fluorescence
same,tumor accumulation / fluorescence of CREKA analogs,"[1]; FAM-labeled peptides, Example 3",only weak tumor fluorescence
CR(CMe)EKA: Cα-methylated CREKA analog (C[αMeR]EKA),tumor fluorescence compared to unmodified CREKA,[1],significantly more fluorescence
CR(NMe)E(NMe)KA: doubly N-methylated CREKA analog (C[NMeR][NMeE]KA),tumor fluorescence compared to unmodified CREKA,[1],significantly more fluorescence
CRE(CMe)KA: Cα-methylated CREKA analog (CR[αMeE]KA),tumor fluorescence compared to unmodified CREKA,[1],significantly more fluorescence
same,accumulation in areas rich in fibrin(ogen) and fibronectin,[1]; confocal microscopy of tumor sections,equally active
CRE(NMe)KA: N-methylated CREKA analog (CR[NMeE]KA),tumor fluorescence compared to unmodified CREKA,[1],significantly more fluorescence
CREKA-SPIO: fluorescein-labeled CREKA coupled onto 50 nm superparamagnetic amino dextran-coated iron oxide nanoparticles (not fully specified (N-terminus); also: conjugated to dextran-coated superparamagnetic iron oxide nanoparticles (SPIO)),tumor homing,[2],effectively home to 22Rv-1 tumors
same,prolongation in particle half-life,[3]; after depleting RES macrophages with liposomal clodronate,~5 fold
same,blood half-life and tumor homing after decoy particles,[3]; plain liposomes as decoy particles,prolonged the blood half-life
same,whole-body scan tumor signal,"[4]; Cy7-labeled, near infrared",effectively accumulated in tumors
same,intravital confocal microscopy of tumor blood vessels,"[4]; DiI-labeled erythrocytes as flow marker, 4 mg/kg",time-dependent clot formation and obstruction of blood flow
same,accumulation in Ni-liposome-pretreated compared to PBS-pretreated mice,[4]; SQUID tumor magnetization and fluorescence signal,about 6 fold
same,reduction of tumor accumulation by heparin,"[4]; SQUID, heparin prior to injection",more than 50%
same,tumor vessel lumens filled with fluorescent masses (occlusion),[4]; after liposome pretreatment,up to 20%
same,effect of thrombocytopenia on homing,[4]; anti-CD41 monoclonal antibody,no noticeable effect
same,heparin effect on intravascular clotting,[4]; heparin pretreatment,essentially eliminated
same,heparin effect on number of vessels with nanoparticles bound to the vessel walls,[4]; heparin pretreatment,did not significantly reduce
same,accumulation in tumor,[4]; [7],did not accumulate effectively
same,particles in reticuloendothelial system (RES) tissues,[4]; [7],high concentration of particles
same,tumor homing after Ni-liposome pretreatment,[4]; pretreatment 5 min or 48 h prior,greatly increased the tumor homing
same,localization of nanoparticle-induced clotting,"[4]; tumor versus kidneys, lungs, liver",essentially confined to tumor vessels
same,binding to plasma clots,[5],bound to mouse and human plasma clots
same,binding to plasma clots,[6],bound to mouse and human plasma clots

# Reference: US8912136B2, “Methods and compositions related to clot-binding compounds” (Sanford-Burnham Medical Research Institute, priority 2009, dated 2014)
